# Test results published in patent publication US9206130B2, “Quinoline derivatives as AXL kinase inhibitors” (Max-Planck-Gesellschaft zur Förderung der Wissenschaften …, priority 2008, dated 2015).
# Columns and labels:
# [1] = target: T1, wild type AXL (wtAXL) receptor tyrosine kinase (Homo sapiens, UniProt P30530); assay: NIH-3T3-AXL cellular tyrosine kinase assay (inhibition of AXL phosphorylation); format: cell-based; conditions: AXL phosphorylation in NIH-3T3-AXL (clone 22) cells, serum-depleted, 2 h with compound, immunoprecipitation / anti-phosphotyrosine blot
# T1 construct: WtAXL cDNA was cloned into vector pLXSN(ESK) and transfected into Phoenix E packaging cells; expressed in transfected cells; host or cells: NIH3T3 N7 mouse fibroblasts, retrovirally infected (clone 22)
# T1 sequence (P30530 26-894): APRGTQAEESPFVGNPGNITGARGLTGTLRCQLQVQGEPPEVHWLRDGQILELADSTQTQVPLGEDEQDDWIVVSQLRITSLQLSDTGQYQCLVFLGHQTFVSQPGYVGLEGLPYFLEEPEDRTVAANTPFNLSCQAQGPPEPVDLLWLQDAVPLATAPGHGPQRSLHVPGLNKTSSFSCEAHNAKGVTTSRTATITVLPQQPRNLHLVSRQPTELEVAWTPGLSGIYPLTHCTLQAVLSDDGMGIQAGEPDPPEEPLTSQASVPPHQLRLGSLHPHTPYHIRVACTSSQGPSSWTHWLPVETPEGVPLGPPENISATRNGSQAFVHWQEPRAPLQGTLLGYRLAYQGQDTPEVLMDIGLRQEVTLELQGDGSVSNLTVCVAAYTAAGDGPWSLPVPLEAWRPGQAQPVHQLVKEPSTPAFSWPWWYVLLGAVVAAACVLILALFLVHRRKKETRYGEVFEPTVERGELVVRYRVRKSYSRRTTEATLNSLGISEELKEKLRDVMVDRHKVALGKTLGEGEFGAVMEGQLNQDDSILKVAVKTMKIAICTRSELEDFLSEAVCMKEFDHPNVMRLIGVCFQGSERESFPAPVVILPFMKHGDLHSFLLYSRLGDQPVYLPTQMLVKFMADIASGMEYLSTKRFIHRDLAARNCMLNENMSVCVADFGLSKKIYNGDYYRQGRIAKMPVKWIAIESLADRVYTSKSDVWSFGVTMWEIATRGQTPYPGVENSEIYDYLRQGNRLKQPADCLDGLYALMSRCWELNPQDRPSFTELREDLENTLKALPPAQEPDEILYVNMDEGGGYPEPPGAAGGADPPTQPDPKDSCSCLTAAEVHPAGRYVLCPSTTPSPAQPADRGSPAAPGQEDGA
# Outline: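 Compound inhibition of AXL autophosphorylation was read by 4G10 immunoblot after anti-AXL immunoprecipitation from lysates. Cells: NIH3T3 lines stably carrying retroviral wild-type human AXL, treated 2 h with compound dilution series.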
IC50 [1] [nM],melting point [°C],SMILES
> 10000,115 to 117,"COc1cc2nccc(Oc3ccc(NS(=O)(=O)c4cccc(Oc5ccccc5)c4)cc3C)c2cc1OC [Example A76, N-[4-(6,7-Dimethoxy-quinolin-4-yloxy)-3-methyl-phenyl]-3-phenoxy-benzenesulfonamide]"
> 10000,118 to 120,"COc1cc2nccc(Oc3ccc(NS(=O)(=O)c4cccc5ccccc45)cc3C)c2cc1OC [Example A77, Naphthalene-1-sulfonic acid [4-(6,7-dimethoxy-quinolin-4-yloxy)-3-methyl-phenyl]-amide]"
480,113 to 117,"COc1cc2nccc(Oc3ccc(NS(=O)(=O)c4cc(Cl)cc(Cl)c4O)cc3C)c2cc1OC [Example A79, 3,5-Dichloro-N-[4-(6,7-dimethoxy-quinolin-4-yloxy)-3-methyl-phenyl]-2-hydroxy-benzenesulfonamide]"
> 10000,268 to 269,"COc1cc2nccc(Oc3ccc(NS(=O)(=O)c4cnc(C)[nH]4)cc3)c2cc1OC [Example A80, 2-Methyl-3H-imidazole-4-sulfonic acid [4-(6,7-dimethoxy-quinolin-4-yloxy)-phenyl]-amide]"
> 3000,267 to 270,"COc1cc2nccc(Oc3ccc(NS(=O)(=O)c4csc5ccccc45)cc3)c2cc1OC [Example A84, Benzo[b]thiophene-3-sulfonic acid [4-(6,7-dimethoxy-quinolin-4-yloxy)-phenyl]-amide]"
> 1000,230 to 232,"COc1ccc(S(=O)(=O)Nc2ccc(Oc3ccnc4cc(OC)c(OC)cc34)cc2F)cc1F [Example A88, N-[4-(6,7-Dimethoxy-quinolin-4-yloxy)-2-fluoro-phenyl]-3-fluoro-4-methoxy-benzenesulfonamide]"
540,109 to 111,"COc1cc2nccc(Oc3ccc(NS(=O)(=O)c4cccc(-c5ccccc5)c4)cc3F)c2cc1OC [Example A97, Biphenyl-3-sulfonic acid [4-(6,7-dimethoxy-quinolin-4-yloxy)-3-fluoro-phenyl]-amide]"
740,197 to 199,"COc1cc2nccc(Oc3ccc(NS(=O)(=O)c4cccc(Oc5ccccc5)c4)cc3F)c2cc1OC [Example A98, N-[4-(6,7-Dimethoxy-quinolin-4-yloxy)-3-fluoro-phenyl]-3-phenoxy-benzenesulfonamide]"
180,232 to 234,"COc1cc2nccc(Oc3ccc(NS(=O)(=O)c4cc(F)ccc4F)cc3F)c2cc1OC [Example A99, N-[4-(6,7-Dimethoxy-quinolin-4-yloxy)-3-fluoro-phenyl]-2,5-difluoro-benzenesulfonamide]"
740,118 to 120,"COc1cc2nccc(Oc3ccc(NS(=O)(=O)c4cccc5ccccc45)cc3F)c2cc1OC [Example A100, Naphthalene-1-sulfonic acid [4-(6,7-dimethoxy-quinolin-4-yloxy)-3-fluoro-phenyl]-amide]"
> 1000,105 to 107,"COc1cc2nccc(Oc3ccc(NS(=O)(=O)c4cccc(-c5ncccn5)c4)cc3F)c2cc1OC [Example A101, N-[4-(6,7-Dimethoxy-quinolin-4-yloxy)-3-fluoro-phenyl]-3-pyrimidin-2-yl-benzenesulfonamide]"
750,155 to 158,"COc1cc2nccc(Oc3ccc(NS(=O)(=O)c4cc(Cl)cc(Cl)c4OC)cc3F)c2cc1OC [Example A106, 3,5-Dichloro-N-[4-(6,7-dimethoxy-quinolin-4-yloxy)-3-fluoro-phenyl]-2-methoxy-benzenesulfonamide]"
> 10000,167 to 171,"COc1cc2nccc(Oc3ccc(NS(=O)(=O)c4ccc(-c5ccccc5)cc4)cc3F)c2cc1OC [Example A107, Biphenyl-4-sulfonic acid [4-(6,7-dimethoxy-quinolin-4-yloxy)-3-fluoro-phenyl]-amide]"

# The next lines start with the compound.
SMILES,IC50 [1] [nM],melting point [°C]
"COc1cc2nccc(Oc3ccc(NS(=O)(=O)c4cccc5cnccc45)cc3)c2cc1OC [Example A78, Isoquinoline-5-sulfonic acid [4-(6,7-dimethoxy-quinolin-4-yloxy)-phenyl]-amide]",> 3000,229 to 231
"COc1cc2nccc(Oc3ccc(NS(=O)(=O)c4ccc(-c5ccccc5)cc4)cc3)c2cc1OC [Example A81, Biphenyl-4-sulfonic acid [4-(6,7-dimethoxy-quinolin-4-yloxy)-phenyl]-amide]",> 10000,191 to 194
"COc1cc2nccc(Oc3ccc(NS(=O)(=O)c4cccc(-c5ncccn5)c4)cc3)c2cc1OC [Example A82, N-[4-(6,7-Dimethoxy-quinolin-4-yloxy)-phenyl]-3-pyrimidin-2-yl-benzenesulfonamide]",> 1000,194 to 195
"COc1cc2nccc(Oc3ccc(NS(=O)(=O)c4cc5ccccc5s4)cc3)c2cc1OC [Example A83, Benzo[b]thiophene-2-sulfonic acid [4-(6,7-dimethoxy-quinolin-4-yloxy)-phenyl]-amide]",> 3000,222 to 225
"COc1cc2nccc(Oc3ccc(NS(=O)(=O)c4ccc5c(c4)CC(=O)N5C)cc3)c2cc1OC [Example A85, 1-Methyl-2-oxo-2,3-dihydro-1H-indole-5-sulfonic acid [4-(6,7-dimethoxy-quinolin-4-yloxy)-phenyl]-amide]",> 3000,119 to 122
"COc1cc2nccc(Oc3ccc(NS(=O)(=O)c4cccc(-c5ccccc5)c4)cc3)c2cc1OC [Example A86, Biphenyl-3-sulfonic acid [4-(6,7-dimethoxy-quinolin-4-yloxy)-phenyl]-amide]",> 1000,197 to 200
"COc1cc2nccc(Oc3ccc(NS(=O)(=O)c4cccc(-c5ccccc5)c4)c(C)c3)c2cc1OC [Example A89, Biphenyl-3-sulfonic acid [4-(6,7-dimethoxy-quinolin-4-yloxy)-2-methyl-phenyl]-amide]",450,220 to 222
"COc1cc2nccc(Oc3ccc(NS(=O)(=O)c4cccc(Oc5ccccc5)c4)c(C)c3)c2cc1OC [Example A90, N-[4-(6,7-Dimethoxy-quinolin-4-yloxy)-2-methyl-phenyl]-3-phenoxy-benzenesulfonamide]",> 10000,169 to 170
"COc1cc2nccc(Oc3ccc(NS(=O)(=O)c4cccc5ccccc45)c(C)c3)c2cc1OC [Example A91, Naphthalene-1-sulfonic acid [4-(6,7-dimethoxy-quinolin-4-yloxy)-2-methyl-phenyl]-amide]",> 10000,233 to 235
"COc1cc2nccc(Oc3ccc(NS(=O)(=O)c4ccc(-c5ccccc5)cc4)c(C)c3)c2cc1OC [Example A92, Biphenyl-4-sulfonic acid [4-(6,7-dimethoxy-quinolin-4-yloxy)-2-methyl-phenyl]-amide]",> 10000,228 to 230
"COc1cc2nccc(Oc3ccc(NS(=O)(=O)c4cccc(-c5ncccn5)c4)c(C)c3)c2cc1OC [Example A93, N-[4-(6,7-Dimethoxy-quinolin-4-yloxy)-2-methyl-phenyl]-3-pyrimidin-2-yl-benzenesulfonamide]",> 3000,103 to 105
"COc1cc2nccc(Oc3ccc(NS(=O)(=O)c4cc5ccccc5s4)c(C)c3)c2cc1OC [Example A94, Benzo[b]thiophene-2-sulfonic acid [4-(6,7-dimethoxy-quinolin-4-yloxy)-2-methyl-phenyl]-amide]",> 10000,255 to 257
"COc1cc2nccc(Oc3ccc(NS(=O)(=O)c4ccc5c(c4)CC(=O)N5C)c(C)c3)c2cc1OC [Example A95, 1-Methyl-2-oxo-2,3-dihydro-1H-indole-5-sulfonic acid [4-(6,7-dimethoxy-quinolin-4-yloxy)-2-methyl-phenyl]-amide]",> 10000,115 to 116
"COc1cc2nccc(Oc3ccc(NS(=O)(=O)c4cccc(-c5ncccn5)c4)c(F)c3)c2cc1OC [Example A102, N-[4-(6,7-Dimethoxy-quinolin-4-yloxy)-2-fluoro-phenyl]-3-pyrimidin-2-yl-benzenesulfonamide]",> 1000,137 to 140
